Tests used:
Assay in all cases: relative viability (nuclei count vs DMSO), 5 days (fraction); higher = more cells survive
XMD13-2 + Crizotinib = compound: C1CC1C(=O)NC2=NNC3=C2C=CC(=C3)C4=CC(=CC=C4)C(=O)NC5CC5 [XMD13-2] + C[C@@H](Oc1cc(-c2cnn(C3CCNCC3)c2)cnc1N)c1c(Cl)ccc(F)c1Cl [Crizotinib] (partner 1 µM)
How it was run: (§1)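 Lung cancer cell lines, seeded in 1536-well plates, were treated the following day by pin tool with a single drug or with five library-drug doses (not always all listed) in √10 steps on top of a fixed anchor-drug dose. Cells were fixed and nuclei stained in one step after 5 days, and nuclei were counted. Relative viability is the nuclei count for treated wells divided by that for vehicle wells, reported as medians of duplicate plates.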

XMD13-2 + Trametinib = compound: C1CC1C(=O)NC2=NNC3=C2C=CC(=C3)C4=CC(=CC=C4)C(=O)NC5CC5 [XMD13-2] + CC(=O)Nc1cccc(-n2c(=O)n(C3CC3)c(=O)c3c(Nc4ccc(I)cc4F)n(C)c(=O)c(C)c32)c1 [Trametinib] (partner 0.02 µM)
How it was run: as §1

XMD13-2 + Bortezomib = compound: C1CC1C(=O)NC2=NNC3=C2C=CC(=C3)C4=CC(=CC=C4)C(=O)NC5CC5 [XMD13-2] + CC(C)C[C@H](NC(=O)[C@H](Cc1ccccc1)NC(=O)c1cnccn1)B(O)O [Bortezomib] (partner 0.002 µM)
How it was run: as §1

ALW-II-49-7 + Pictilisib = compound: Cc1ccc(C(=O)Nc2cccc(C(F)(F)F)c2)cc1Nc1cncc(C(N)=O)c1 [ALW-II-49-7] + CS(=O)(=O)N1CCN(Cc2cc3nc(-c4cccc5[nH]ncc45)nc(N4CCOCC4)c3s2)CC1 [Pictilisib] (partner 1 µM)
How it was run: as §1

Cell Line	relative viability (XMD13-2 + Crizotinib; first compound 0.05 µM)	relative viability (XMD13-2 + Crizotinib; first compound 0.1581 µM)	relative viability (XMD13-2 + Crizotinib; first compound 0.5 µM)	relative viability (XMD13-2 + Crizotinib; first compound 1.581 µM)	relative viability (XMD13-2 + Crizotinib; first compound 5 µM)	relative viability (XMD13-2 + Trametinib; first compound 0.05 µM)	relative viability (XMD13-2 + Trametinib; first compound 0.1581 µM)	relative viability (XMD13-2 + Trametinib; first compound 0.5 µM)	relative viability (XMD13-2 + Trametinib; first compound 5 µM)	relative viability (XMD13-2 + Bortezomib; first compound 0.05 µM)	relative viability (XMD13-2 + Bortezomib; first compound 0.1581 µM)	relative viability (XMD13-2 + Bortezomib; first compound 0.5 µM)	relative viability (XMD13-2 + Bortezomib; first compound 1.581 µM)	relative viability (XMD13-2 + Bortezomib; first compound 5 µM)	relative viability (ALW-II-49-7 + Pictilisib; first compound 0.08 µM)	relative viability (ALW-II-49-7 + Pictilisib; first compound 0.253 µM)	relative viability (ALW-II-49-7 + Pictilisib; first compound 0.8 µM)	relative viability (ALW-II-49-7 + Pictilisib; first compound 2.53 µM)	relative viability (ALW-II-49-7 + Pictilisib; first compound 8 µM)	relative viability (XMD13-2 + Trametinib; first compound 1.581 µM)
PC-3 [JPC-3]	1.02	0.897	0.963	1.01	0.847	0.681	0.721	0.737	0.778	0.807	0.778	0.884	0.871	0.867	0.657	0.799	0.745	0.711	0.616	–
HCC-44	0.789	0.814	0.75	0.772	0.755	1.2	1.04	1.17	1.05	0.899	0.92	0.897	0.804	0.966	0.513	0.693	0.638	0.535	0.646	1.05
NCI-H2405	0.932	0.84	0.971	0.846	0.837	0.73	0.656	0.628	0.65	1.07	0.964	0.957	0.926	0.991	0.409	0.526	0.368	0.345	0.366	–
LXF-289	0.863	0.831	0.473	0.789	0.811	0.672	0.73	0.731	0.731	1.06	1.04	1.07	0.976	1	0.711	0.778	0.8	0.773	0.746	0.642
LOU-NH91	0.791	0.659	0.769	0.727	0.782	0.802	0.726	0.793	0.85	0.501	0.451	0.538	0.444	0.556	0.482	0.599	0.514	0.428	0.533	0.729
A549	0.994	0.736	0.721	0.664	0.824	–	–	–	–	–	–	–	–	–	0.535	0.568	0.496	0.505	0.416	–
H3255	0.972	0.694	0.699	0.884	0.784	0.749	0.66	0.556	0.475	1	0.75	0.817	0.575	0.764	0.505	0.43	0.48	0.335	0.418	–
NCI-H1395	–	–	–	–	–	1.05	1.01	1.06	1.04	–	–	–	–	–	0.646	1.05	0.653	0.581	0.62	0.966
LC-2-ad	0.468	0.449	0.467	0.443	0.48	0.934	0.938	0.961	0.93	1.25	1.11	1.1	1.01	1.08	0.427	1.04	0.31	0.542	0.555	0.936
NCI-H838	0.917	0.891	0.814	0.883	0.848	0.552	0.569	0.576	0.552	1.15	0.886	1.03	0.81	0.986	0.342	0.464	0.432	0.46	0.393	0.557
Calu-6	0.958	0.813	0.898	0.773	0.643	–	–	–	–	1	1.04	1.1	0.871	0.789	1.02	0.99	0.907	0.735	0.72	–
NCI-H1648	–	–	–	–	–	0.526	–	0.454	0.374	–	–	–	–	–	–	–	–	–	–	0.55
LCLC-97TM1	0.432	0.318	0.265	0.374	0.256	0.225	0.198	0.217	0.179	1.02	0.686	0.881	0.236	0.469	0.213	0.119	0.269	0.159	0.195	0.17
HCC-15	0.925	0.766	0.857	0.793	0.472	0.353	0.351	0.428	0.344	1.12	0.994	1.11	0.981	1.05	0.849	0.791	0.705	0.805	0.741	0.363
CAL-12T	0.76	0.816	0.572	0.538	0.874	0.465	0.399	0.332	0.307	1.2	–	1.01	0.837	1.16	0.343	–	–	0.715	0.395	0.317

Source: the supplement of paper PMC10307832
